From patent publication US9023789B2, “Amylin analogs and pharmaceutical compositions thereof” (Novo Nordisk A/S, priority 2012, dated 2015) come the findings set out here.

One experiment addresses T1, rat calcitonin receptor (Rattus norvegicus, UniProt P32214).
T1 construct: expressed in transfected cells; host or cells: BHK tk'ts 13 (transient, FuGENE 6), membranes
T1 sequence (P32214 25-479 isoform P32214-2 limits assumed): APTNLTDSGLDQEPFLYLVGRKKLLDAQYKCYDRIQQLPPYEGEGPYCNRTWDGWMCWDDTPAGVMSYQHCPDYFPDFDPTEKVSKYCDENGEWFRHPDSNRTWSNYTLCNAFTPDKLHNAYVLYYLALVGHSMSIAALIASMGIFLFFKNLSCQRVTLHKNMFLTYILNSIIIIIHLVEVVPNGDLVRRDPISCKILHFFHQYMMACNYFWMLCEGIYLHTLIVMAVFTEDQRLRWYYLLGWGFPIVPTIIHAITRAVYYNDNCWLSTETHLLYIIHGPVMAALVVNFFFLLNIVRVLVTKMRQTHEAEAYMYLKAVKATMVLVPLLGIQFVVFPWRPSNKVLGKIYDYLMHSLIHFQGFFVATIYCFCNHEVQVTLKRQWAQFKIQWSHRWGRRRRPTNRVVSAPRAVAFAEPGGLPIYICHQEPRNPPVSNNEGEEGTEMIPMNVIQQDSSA
The experiment in a line: ASSAY (VIII) binding to the rat calcitonin receptor. Conditions: Table 7, read-out: rCTR bind IC50. Summed up: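 BHK tk′ts 13 cells, transient rat calcitonin receptor transfection; DMEM + 10% FBS; harvest ~48 h post-transfection; membrane prep.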

Experiment [1] has as its target T2, human amylin 3(a) receptor (human calcitonin receptor + RAMP-3) in BHK570 cells (Homo sapiens, UniProt O60896+P30988).
T2 construct: expressed in transfected cells
The experiment in a line: ASSAY (II)a functional assay, human amylin receptor (CRE luciferase). The format is cell-based. As to conditions: for EC50: human amylin receptor functional potency, assay (II), read-out: hAmylin-R funct. EC50. Summed up:
(§1)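 Read-out: CRE-driven luciferase luminescence, single photon counting, after 30 min at room temperature with LucLite. BHK cells expressed calcitonin receptor alone or with RAMP-3 (amylin 3(a)). Cells were stimulated 3 h at 37° C in DMEM, 10% FBS, 10 mM Hepes, pH 7.4.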

Experiment [2] concerns the target T3, human calcitonin (a) receptor in BHK570 cells (Homo sapiens, UniProt P30988).
T3 construct: expressed in transfected cells
T3 sequence (P30988 25-474): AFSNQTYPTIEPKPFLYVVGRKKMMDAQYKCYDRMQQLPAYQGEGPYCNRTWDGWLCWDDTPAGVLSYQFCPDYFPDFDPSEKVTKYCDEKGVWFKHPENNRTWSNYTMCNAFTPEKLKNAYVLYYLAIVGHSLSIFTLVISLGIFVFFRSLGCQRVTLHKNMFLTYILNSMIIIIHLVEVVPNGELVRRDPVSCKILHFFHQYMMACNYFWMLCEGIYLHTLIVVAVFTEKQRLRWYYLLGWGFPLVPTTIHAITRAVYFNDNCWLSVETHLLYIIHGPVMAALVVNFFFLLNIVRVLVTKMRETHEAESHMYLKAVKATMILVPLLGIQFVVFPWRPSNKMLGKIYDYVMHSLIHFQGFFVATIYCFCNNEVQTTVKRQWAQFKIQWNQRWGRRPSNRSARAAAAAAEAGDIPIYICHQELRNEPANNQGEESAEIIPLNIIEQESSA
The experiment in a line: ASSAY (II)a functional assay, human calcitonin receptor (CRE luciferase). The experiment is classed as cell-based. Conditions: read-out: hCTR funct. EC50. Put shortly: as §1

The test system of the next experiment is Sprague Dawley (SD) rats. The experiment in a line: ASSAY (I) efficacy testing on appetite (food intake) using an ad libitum fed rat model. The experiment is classed as in vivo. Conditions: rat, 30 nmol/kg. Summed up: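 Individual food consumption was logged each hour up to 7 h and again at 24 h, occasionally 48 h, with Grubbs-test outliers removed. Each 200–250 g Sprague Dawley rat, free-feeding in its home cage under reversed lighting, received a single ip, po or sc dose of 0.01–3 mg/kg at lights-off, alongside a vehicle group.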

Experiment [3] concerns the target T4, human amylin receptor (membranes from Amylin 3(a)/CRE-luc cells) (Homo sapiens, UniProt O60896+P30988).
T4 construct: expressed in transfected cells
T4 sequence (P30988 25-474): T3 sequence (P30988 25-474)
T4 sequence (O60896 24-148 partner): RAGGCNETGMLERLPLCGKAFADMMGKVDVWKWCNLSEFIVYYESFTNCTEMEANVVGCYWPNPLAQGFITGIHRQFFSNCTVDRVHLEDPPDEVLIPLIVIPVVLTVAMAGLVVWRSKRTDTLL
The experiment in a line: ASSAY (V) binding to the human amylin receptor (SPA, 125I-rat amylin).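 On all read-outs here: competition binding of cell membranes (35 ng/µL) mixed with SPA beads in 384-well plates at 40 µL total volume, read by scintillation counting.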 As to conditions: for IC50: Table 4, read-out: hAmylin-R bind IC50.

Setting [4] is: hCTR funct. EC50 divided by hAmylin-R funct. EC50.
The mark [5] stands for this setting: hCTR funct. EC50 over hAmylin-R funct. EC50.
Setting [6] is: human functional selectivity: hCTR funct. EC50 / hAmylin-R funct. EC50.
The mark [7] stands for this setting: Table 5, selectivity, hCTR bind IC50 / hAmylin-R bind IC50.
Setting [8] is: Table 5a, selectivity, hCTR bind IC50 / hAmylin-R bind IC50.
Where [9] appears, read: Table 5b, selectivity, hCTR bind IC50 / hAmylin-R bind IC50.
Where [10] appears, read: Table 5c, selectivity, hCTR bind IC50 / hAmylin-R bind IC50.
[11] abbreviates: Table 7, human binding selectivity, included for comparison.
The mark [12] stands for this setting: Table 7a (preferred compounds), human binding selectivity, included for comparison.
The mark [13] stands for this setting: ratio of human calcitonin receptor binding IC50 to human amylin receptor binding IC50.

Numbered stars: 1 amine (or outer) side, 2 acyl side, 3 side chain; on linkers, the order of the positions; unused ones are H or OH. Bridge positions count the residues as written; N and C are the ends. Side chains are listed from the residue outwards. Peptide text beside a SMILES is read from it. * marks the point of attachment. C20 diacid = O=C(O)CCCCCCCCCCCCCCCCCCC(=O)*; γGlu = O=C(O)[C@H](CCC(=O)[*:2])N[*:1]; AEEA = NCCOCCOCC(=O)O

One may read the IC50 as the concentration that gives 50% inhibition. What is called EC50 is the concentration giving half of the maximal effect.

Regarding `CC[C@H](C)[C@H](NC(=O)[C@H](C)NC(=O)CNC(=O)[C@H](Cc1ccccc1)NC(=O)[C@H](CC(N)=O)NC(=O)[C@@H]1CCCN1C(=O)[C@H](CO)NC(=O)[C@H](CO)NC(=O)[C@H](Cc1c[nH]cn1)NC(=O)[C@H](CCCNC(=N)N)NC(=O)[C@H](CC(C)C)NC(=O)[C@H](Cc1ccccc1)NC(=O)[C@H](Cc1c[nH]cn1)NC(=O)[C@H](C)NC(=O)[C@H](CC(C)C)NC(=O)[C@H](CCCNC(=N)N)NC(=O)[C@H](CCC(N)=O)NC(=O)[C@@H](NC(=O)[C@H](C)NC(=O)[C@@H]1CSSC[C@H](NC(=O)[C@@H](N)CCCCNC(=O)COCCOCCNC(=O)CC[C@H](NC(=O)CCCCCCCCCCCCCCCCCCC(=O)O)C(=O)O)C(=O)N[C@@H](CC(N)=O)C(=O)N[C@@H]([C@@H](C)O)C(=O)N[C@@H](C)C(=O)N[C@@H]([C@@H](C)O)C(=O)N1)[C@@H](C)O)C(=O)N1CCC[C@H]1C(=O)N[C@@H](CO)C(=O)N[C@@H](CO)C(=O)N[C@H](C(=O)N[C@@H](CC(N)=O)C(=O)N[C@H](C(=O)NCC(=O)N[C@@H](Cc1c[nH]cn1)C(=O)N[C@@H](CC(N)=O)C(=O)N[C@H](C(=O)N[C@@H](Cc1ccc(O)cc1)C(N)=O)[C@@H](C)O)C(C)C)[C@@H](C)O` [Example 80] (H-K([AEEA-γGlu-C20 diacid])CNTATCATQRLAHFLRHSSPNFGAIPSSTNVGHNTY-NH2; disulfide 2-7; N-terminus assumed), the IC50 at rat calcitonin receptor worked out at 60.4 nM; in experiment [3] it was 0.29 nM. For the same molecule, the “Ratio hCT/hAmylin funct.” value in experiment [1] (setting [4]), in experiment [1] (setting [5]) and in experiment [1] (setting [6]) was 15.4 in each case. The EC50 in experiment [1] was 0.139 nM; in experiment [2], 2.14 nM. Further, in the experiment on Sprague Dawley (SD) rats, the “Food intake reduction 0-24 h 30 nmol/kg (%)” value amounted to 46%. Moreover, the “Food intake reduction 24-48 h 30 nmol/kg (%)” value with Sprague Dawley (SD) rats turned out to be 9%. Also, the “Ratio hCT/hAmylin binding” value in experiment [3] (setting [7]), in experiment [3] (setting [8]), in experiment [3] (setting [9]), in experiment [3] (setting [10]), in experiment [3] (setting [11]) and in experiment [3] (setting [12]) was 68.1 throughout. Besides, the “Ratio hCT/hAmylin binding” value in experiment [3] (setting [13]) was determined as 68.1.
As to `CC[C@H](C)[C@H](NC(=O)[C@H](C)NC(=O)CNC(=O)[C@H](Cc1ccccc1)NC(=O)[C@H](CC(N)=O)NC(=O)[C@@H]1CCCN1C(=O)[C@H](CO)NC(=O)[C@H](CO)NC(=O)[C@H](Cc1c[nH]cn1)NC(=O)[C@H](CCCNC(=N)N)NC(=O)[C@H](CC(C)C)NC(=O)[C@H](Cc1ccccc1)NC(=O)[C@H](Cc1c[nH]cn1)NC(=O)[C@H](C)NC(=O)[C@H](CC(C)C)NC(=O)[C@H](CCCNC(=N)N)NC(=O)[C@H](CCC(N)=O)NC(=O)[C@@H](NC(=O)[C@H](C)NC(=O)[C@@H]1CSSC[C@H](NC(=O)[C@@H](N)CCCCNC(=O)CC[C@H](NC(=O)CCCCCCCCCCCCCCCCCCC(=O)O)C(=O)O)C(=O)N[C@@H](CC(N)=O)C(=O)N[C@@H]([C@@H](C)O)C(=O)N[C@@H](C)C(=O)N[C@@H]([C@@H](C)O)C(=O)N1)[C@@H](C)O)C(=O)N1CCC[C@H]1C(=O)N[C@@H](CO)C(=O)N[C@@H](CO)C(=O)N[C@H](C(=O)N[C@@H](CC(N)=O)C(=O)N[C@H](C(=O)NCC(=O)N[C@@H](Cc1c[nH]cn1)C(=O)N[C@@H](CC(N)=O)C(=O)N[C@H](C(=O)N[C@@H](Cc1ccc(O)cc1)C(N)=O)[C@@H](C)O)C(C)C)[C@@H](C)O` [Example 81] (H-K([γGlu-C20 diacid])CNTATCATQRLAHFLRHSSPNFGAIPSSTNVGHNTY-NH2; disulfide 2-7; N-terminus assumed), the IC50 on rat calcitonin receptor worked out at 61.1 nM; in experiment [3], 0.271 nM. The “Ratio hCT/hAmylin funct.” value in experiment [1] (setting [4]), in experiment [1] (setting [5]) and in experiment [1] (setting [6]) was 13.3 each time. In addition, the results for the EC50 in experiment [1] and in experiment [2] were 0.13 nM and 1.73 nM, respectively. Besides, in the experiment on Sprague Dawley (SD) rats, the “Food intake reduction 0-24 h 30 nmol/kg (%)” value amounted to 40%. Besides, in the experiment with Sprague Dawley (SD) rats, the “Food intake reduction 24-48 h 30 nmol/kg (%)” value is 3%. Also, the “Ratio hCT/hAmylin binding” value in experiment [3] (setting [7]), in experiment [3] (setting [8]), in experiment [3] (setting [9]), in experiment [3] (setting [10]), in experiment [3] (setting [11]) and in experiment [3] (setting [12]) was 87.2 in each case. In addition, the “Ratio hCT/hAmylin binding” value in experiment [3] (setting [13]) turned out to be 87.2.
`CC[C@H](C)[C@H](NC(=O)[C@H](C)NC(=O)CNC(=O)[C@H](Cc1ccccc1)NC(=O)[C@H](CC(N)=O)NC(=O)[C@@H]1CCCN1C(=O)[C@H](CO)NC(=O)[C@H](CO)NC(=O)[C@H](Cc1c[nH]cn1)NC(=O)[C@H](CCCNC(=N)N)NC(=O)[C@H](CC(C)C)NC(=O)[C@H](Cc1ccccc1)NC(=O)[C@H](Cc1c[nH]cn1)NC(=O)[C@H](C)NC(=O)[C@H](CC(C)C)NC(=O)[C@H](CCCNC(=N)N)NC(=O)[C@H](CCC(N)=O)NC(=O)[C@@H](NC(=O)[C@H](C)NC(=O)[C@@H]1CSSC[C@H](NC(=O)[C@@H](N)CCCCNC(=O)COCCOCCNC(=O)CC[C@H](NC(=O)CCCCCCCCCCCCCCCCCCC(=O)O)C(=O)O)C(=O)N[C@@H](CC(N)=O)C(=O)N[C@@H]([C@@H](C)O)C(=O)N[C@@H](C)C(=O)N[C@@H]([C@@H](C)O)C(=O)N1)[C@@H](C)O)C(=O)N1CCC[C@H]1C(=O)N[C@@H](CO)C(=O)N[C@@H](CO)C(=O)N[C@H](C(=O)N[C@@H](CC(N)=O)C(=O)N[C@H](C(=O)NCC(=O)N[C@@H](CCCNC(=N)N)C(=O)N[C@@H](CC(N)=O)C(=O)N[C@H](C(=O)N[C@@H](Cc1ccc(O)cc1)C(N)=O)[C@@H](C)O)C(C)C)[C@@H](C)O` [Example 84] (H-K([AEEA-γGlu-C20 diacid])CNTATCATQRLAHFLRHSSPNFGAIPSSTNVGRNTY-NH2; disulfide 2-7 (inferred); N-terminus assumed): the half-inhibitory concentration (IC50) on rat calcitonin receptor was 477 nM; in experiment [3], 0.743 nM. In addition, the “Ratio hCT/hAmylin funct.” value in experiment [1] (setting [4]), in experiment [1] (setting [5]) and in experiment [1] (setting [6]) was 32.5 throughout. In addition, the values for the EC50 in experiment [1] and in experiment [2] were 0.169 nM and 5.49 nM, respectively. The “Food intake reduction 0-24 h 30 nmol/kg (%)” value with Sprague Dawley (SD) rats turned out to be 10%. Also, in the experiment on Sprague Dawley (SD) rats, the “Food intake reduction 24-48 h 30 nmol/kg (%)” value is on record as 0%. The “Ratio hCT/hAmylin binding” value in experiment [3] (setting [7]), in experiment [3] (setting [8]), in experiment [3] (setting [9]), in experiment [3] (setting [10]), in experiment [3] (setting [11]) and in experiment [3] (setting [12]) was 119.6 throughout. In addition, the “Ratio hCT/hAmylin binding” value in experiment [3] (setting [13]) stood at 119.6.
